Measurements from patent US5321043A, “Method of combatting transplant rejection” (The University of Melbourne, priority 1992, dated 1994).
“Also recorded” adds a separate entry of the source.

Legend:
[1] = Blood CyA levels after seven days treatment in nephrotoxicity study (Abbott TDX fluorescence immunoassay); format: in vivo, rabbit; settings: CyA administered parenterally
Procedure: Compound A was provided as a powder which was dissolved in absolute ethanol to yield a […] solution. 50 ug/kg/day was administered subcutaneously for seven days. Ethanol (50 ul/kg/day) was administered in vehicle-only control animals.

renal allograft = test: Rabbit renal allograft survival; format: in vivo
Procedure: Left orthotopic renal transplantation was performed from New Zealand White rabbit donors into Anglo lop-ear recipients. See D. Francis et al., Aust. N. Z. J. Surgery 60, 45, 1990. Contralateral nephrectomy and graft biopsy were performed on the first post-operative day. Each recipient was subsequently dependent on its transplant for renal function. Serum creatinine (sCr) was measured every 48 hours and animals were culled once sCr had risen above 1.2 mMoles/1, taken as an arbitrary end-point representing graft failure. Graft biopsies were performed weekly and post-mortem to ensure that graft loss was secondary to rejection. Standard haematoxylin and eosin and Masson's trichrome stains were performed.
Compound A was provided as a powder which was dissolved in absolute ethanol to yield a 1 mg/ml solution. 50 μg/kg/day was administered subcutaneously for seven days commencing perioperatively. Ethanol (50 μl/kg/day) was administered in vehicle-only control animals.

[2] = tested on: New Zealand White rabbits; test: Acute cyclosporine (CyA) nephrotoxicity in rabbits (serum creatinine, urea, histology); format: in vivo, rabbit; settings: Compound A 50 ug/kg/day s.c. with CyA 100 mg/kg/day i.v.
Procedure: 50 ug/kg/day was administered subcutaneously for seven days. Ethanol (50 ul/kg/day) was administered in vehicle-only control animals.
Serum creatinine (Cr) and urea were measured prior to commencement of treatment (day 0) and 24 hours following treatment (day 7). Day 7 renal biopsies were stained with haematoxylin and eosin and Masson's trichrome.

[3] = tested on: MLC response of responder lymphocytes to irradiated EBV-transformed lymphoblastoid cells; test: Mixed lymphocyte culture (MLC) suppression by CyA and PG analogues, alone and combined (tritiated thymidine uptake); format: cell-based, human; settings: for decrease in PG analogue concentration necessary for 50% MLC suppression when combined with CyA vs alone / interaction with CyA on MLC suppression: combination with CyA; for Suppression of MLC responses, mean % decrease of cpm vs drug-free cultures: mean of five donors
Procedure: Heparinised blood was obtained from five healthy donors without history of previous blood transfusion, pregnancy, or organ transplantation.
Prostaglandin (PG) analogues PGE1, PGE2, PGF2a, and PGI2 were supplied by the Upjohn Company (Kalamazoo, Mich.) in the form of 15-(s)-15-methyl PGE1, 16,16-dimethyl PGE2, 16,16-dimethyl PGF2α, and 9-deoxy-2,9a-methano-3-oxa-4,5,6-trinor-3,7-(1', 3'-interphenylene)-13,14'-dihydroprostaglandin FI (Compound A). Each was provided in methyl acetate at 10 mg/mL that was subsequently diluted, first with ethyl alcohol to a concentration of 1 mg/mL and thereafter with physiological saline to the concentration range required for the study, 10.0-0.001 μg/mL.
Responder lymphocytes were isolated from the healthy donor heparinised blood by density gradient separation and suspended in glutamine, antibiotic-supplemented RPMI medium containing 10% autologous responder lymphocyte donor serum at a concentration of 1 ×10^6 cells/mL. The stimulator population consisted of Epstein-Barr virus (EBV)-transformed lymphoblastoid cells that were irradiated (130 Gy) before suspension also at 1×10^6 cells/mL in glutamine, antibiotic-supplemented RPMI medium that contained 10% autologous responder lymphocyte donor serum.
Equal volumes (0.1 mL) of responder and stimulator cells were incubated in triplicate wells of microtitre trays with each of the following:
Following incubation at 37° C. (5% CO2) for 4 days, […] of tritiated thymidine was added to all cultures before further incubation for 6-8 hours, after which cells were automatically harvested (Skatron, Liebyen, Norway) on Titertek filter paper (Flow Laboratories, Irvine, Scotland) that was placed in vials containing liquid scintillation fluid for counting in a Beckman beta counter (Beckman, Brea, Calif.).

[4] = PG analogue 0.01 μg/mL + CyA 0.001 μg/mL
[5] = PG analogue 0.01 μg/mL + CyA 0.01 μg/mL
[6] = PG analogue 0.01 μg/mL + CyA 0.1 μg/mL
[7] = PG analogue 0.01 μg/mL + CyA 1.0 μg/mL
[8] = PG analogue 0.01 μg/mL + CyA 10.0 μg/mL
[9] = PG analogue 0.1 μg/mL + CyA 0.001 μg/mL
[10] = PG analogue 0.1 μg/mL + CyA 0.01 μg/mL
[11] = PG analogue 0.1 μg/mL + CyA 0.1 μg/mL
[12] = PG analogue 0.1 μg/mL + CyA 1.0 μg/mL
[13] = PG analogue 0.1 μg/mL + CyA 10.0 μg/mL
[14] = PG analogue 1.0 μg/mL + CyA 0.001 μg/mL
[15] = PG analogue 1.0 μg/mL + CyA 0.01 μg/mL
[16] = PG analogue 1.0 μg/mL + CyA 0.1 μg/mL
[17] = PG analogue 1.0 μg/mL + CyA 1.0 μg/mL
[18] = PG analogue 1.0 μg/mL + CyA 10.0 μg/mL
[19] = PG analogue 10.0 μg/mL + CyA 0.001 μg/mL
[20] = PG analogue 10.0 μg/mL + CyA 0.01 μg/mL
[21] = PG analogue 10.0 μg/mL + CyA 0.1 μg/mL
[22] = PG analogue 10.0 μg/mL + CyA 1.0 μg/mL
[23] = PG analogue 10.0 μg/mL + CyA 10.0 μg/mL

Structure (SMILES) | Suppression of MLC responses by CyA in combination with PG analogue [3, 4] | Suppression of MLC responses by CyA in combination with PG analogue [3, 5] | Suppression of MLC responses by CyA in combination with PG analogue [3, 6] | Suppression of MLC responses by CyA in combination with PG analogue [3, 7] | Suppression of MLC responses by CyA in combination with PG analogue [3, 8] | Suppression of MLC responses by CyA in combination with PG analogue [3, 9] | Suppression of MLC responses by CyA in combination with PG analogue [3, 10] | Suppression of MLC responses by CyA in combination with PG analogue [3, 11] | Suppression of MLC responses by CyA in combination with PG analogue [3, 12] | Suppression of MLC responses by CyA in combination with PG analogue [3, 13] | Suppression of MLC responses by CyA in combination with PG analogue [3, 14] | Suppression of MLC responses by CyA in combination with PG analogue [3, 15] | Suppression of MLC responses by CyA in combination with PG analogue [3, 16] | Suppression of MLC responses by CyA in combination with PG analogue [3, 17] | Suppression of MLC responses by CyA in combination with PG analogue [3, 18] | Suppression of MLC responses by CyA in combination with PG analogue [3, 19] | Suppression of MLC responses by CyA in combination with PG analogue [3, 20] | Suppression of MLC responses by CyA in combination with PG analogue [3, 21] | Suppression of MLC responses by CyA in combination with PG analogue [3, 22] | Suppression of MLC responses by CyA in combination with PG analogue [3, 23] | also measured
CCCCC[C@H](O)CC[C@@H]1[C@H]2Cc3cccc(OCC(=O)O)c3C[C@H]2C[C@H]1O [Compound A, 9-deoxy-2',9α-methano-3-oxa-4,5,6-trinor-3,7-(1',3'-interphenylene)-13, 14--dihydro-prostaglandinF1] | 27% | 58% | 75% | 86% | 87% | 68% | 76% | 86% | 85% | 85% | 81% | 85% | 85% | 85% | 88% | 86% | 88% | 85% | 86% | 86% | effect on CyA bioavailability [1]: without effecting CyA bioavailability; effect on renal allograft survival (renal allograft; Compound A 50 μg/kg/day s.c., CyA 20 mg/kg where combined): prolonged allograft survival over that of untreated animals; Median Graft Survival (renal allograft; Compound A 50 μg/kg/day subcutaneously for seven days, no CyA): 13.5 days; effect on renal function, as measured by serum Cr and urea [2]: significant protective effect on renal function; effect on renal function, as measured by serum Cr and urea ([2]; listed as PGI2 analogue): significant protective affect on renal function; decrease in PG analogue concentration necessary for 50% MLC suppression when combined with CyA vs alone [3]: 10 fold; interaction with CyA on MLC suppression [3]: a synergy that parallels that observed between CyA and the PGE analogues; Suppression of MLC responses, mean % decrease of cpm vs drug-free cultures ([3]; single agent at 0.001 μg/mL): 10%; Suppression of MLC responses, mean % decrease of cpm vs drug-free cultures ([3]; single agent at 0.01 μg/mL): 22%; Suppression of MLC responses, mean % decrease of cpm vs drug-free cultures ([3]; single agent at 0.1 μg/mL): 51%; Suppression of MLC responses, mean % decrease of cpm vs drug-free cultures ([3]; single agent at 1.0 μg/mL): 61%; Suppression of MLC responses, mean % decrease of cpm vs drug-free cultures ([3]; single agent at 10.0 μg/mL): 77%; times more effective in suppressing the MLC response than PGE1 and PGE2 ([3]; single agents): 10 times
CCCCC(C)(C)[C@H](O)/C=C/[C@H]1[C@H](O)CC(=O)[C@@H]1C/C=C\CCCC(=O)O [PGE2, 16,16-dimethyl PGE2] | 23% | 49% | 55% | 63% | 68% | 26% | 52% | 58% | 66% | 70% | 58% | 56% | 67% | 80% | 85% | 60% | 71% | 72% | 88% | 86% | decrease in PG analogue concentration necessary for 50% MLC suppression when combined with CyA vs alone [3]: 100 fold; Suppression of MLC responses, mean % decrease of cpm vs drug-free cultures ([3]; single agent at 0.001 μg/mL): 6%; Suppression of MLC responses, mean % decrease of cpm vs drug-free cultures ([3]; single agent at 0.01 μg/mL): 18%; Suppression of MLC responses, mean % decrease of cpm vs drug-free cultures ([3]; single agent at 0.1 μg/mL): 32%; Suppression of MLC responses, mean % decrease of cpm vs drug-free cultures ([3]; single agent at 1.0 μg/mL): 51%; Suppression of MLC responses, mean % decrease of cpm vs drug-free cultures ([3]; single agent at 10.0 μg/mL): 58%; times more effective in suppressing the MLC response than the PGF2a analogue ([3]; single agents): 10 times
CCCCC(C)(C)[C@H](O)/C=C/[C@@H]1[C@@H](C/C=C\CCCC(=O)O)[C@@H](O)C[C@H]1O [PGF2α, 16,16-dimethyl PGF2α] | 14% | 25% | 55% | 70% | 86% | 14% | 24% | 55% | 72% | 86% | 31% | 30% | 58% | 76% | 85% | 58% | 65% | 69% | 79% | 86% | interaction with CyA on MLC suppression ([3]; listed as PGF2a): no influence further than that exerted when each was added alone; also recorded: no indication of synergistic interaction with CyA; minimum concentration which alone induced 50% MLC inhibition ([3]; single agent): 10.0 µg/mL; Suppression of MLC responses, mean % decrease of cpm vs drug-free cultures ([3]; single agent at 0.001 μg/mL): 0%; Suppression of MLC responses, mean % decrease of cpm vs drug-free cultures ([3]; single agent at 0.01 μg/mL): 4%; Suppression of MLC responses, mean % decrease of cpm vs drug-free cultures ([3]; single agent at 0.1 μg/mL): 16%; Suppression of MLC responses, mean % decrease of cpm vs drug-free cultures ([3]; single agent at 1.0 μg/mL): 29%; Suppression of MLC responses, mean % decrease of cpm vs drug-free cultures ([3]; single agent at 10.0 μg/mL): 50%
